The record followed here is patent US20240140957A1, “BRIDGED COMPOUNDS AS KRAS G12D INHIBITOR AND DEGRADER AND THE USE THEREOF” (BeiGene Switzerland GmbH, priority 2021, published 2024).

Where only a bound is given, the exact number is not on record here.

By IC50 is commonly meant the midpoint of a concentration-inhibition curve.

The target of this test is GDP-loaded KRAS G12D (Homo sapiens, UniProt P01116, G12D). Kind of test: KRAS G12D Probe Displacement Assay. The settings on record: KRAS G12D 0.5 nM, biotinylated probe 2 4 nM; Table 6 letters; read-out: KRAS G12D Probe Displacement Assay IC50 (class). It counts as binding.
Sequence of GDP-loaded KRAS G12D (P01116 1-188 isoform P01116-2 G12D): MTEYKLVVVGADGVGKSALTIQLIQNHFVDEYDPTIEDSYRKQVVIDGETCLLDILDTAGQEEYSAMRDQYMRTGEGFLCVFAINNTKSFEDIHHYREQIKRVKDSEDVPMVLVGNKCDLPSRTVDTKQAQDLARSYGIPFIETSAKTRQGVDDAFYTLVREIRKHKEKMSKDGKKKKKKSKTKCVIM
For the compound `C#Cc1cc(N)nc(-c2c(Cl)cc3c(N4C5CCC4CNC5)nc(OC[C@@]45CCCN4C[C@H](F)C5)nc3c2F)c1C(F)(F)F` [Example E113, 6-(4-(3,8-diazabicyclo[3.2.1]octan-8-yl)-6-chloro-8-fluoro-2-(((2R,7aS)-2-fluorotetrahydro-1H-pyrrolizin-7a(5H)-yl)methoxy)quinazolin-7-yl)-4-ethynyl-5-(trifluoromethyl)pyridin-2-amine], the IC50 is < 50 nM.

In the case of `Cc1cc(O)cc(-c2c(Cl)cc3c(N4CC5CCC(C4)N5)nc(OC[C@@]45CCCN4C[C@H](F)C5)nc3c2F)c1C(F)(F)F` [Example E114, 3-(4-(3,8-diazabicyclo[3.2.1]octan-3-yl)-6-chloro-8-fluoro-2-(((2R,7aS)-2-fluorotetrahydro-1H-pyrrolizin-7a(5H)-yl)methoxy)quinazolin-7-yl)-5-methyl-4-(trifluoromethyl)phenol], the half-inhibitory concentration (IC50) is < 50 nM.

Take `C[C@@H](CN1C2CCC1CC(C#N)C2)Oc1nc(N2CC3CCC(C2)N3)c2cc(Cl)c(-c3ccc(F)c4sc(N)c(C#N)c34)c(F)c2n1` (stereo partly drawn) [Example E115, 8-((2S)-2-((7-(2-amino-3-cyano-7-fluorobenzo[b]thiophen-4-yl)-4-(3,8-diazabicyclo[3.2.1]octan-3-yl)-6-chloro-8-fluoroquinazolin-2-yl)oxy)propyl)-8-azabicyclo [3.2.1]octane-3-carbonitrile]: the IC50 is < 50 nM.

As for `C[C@@H](CN1CCC(F)CC1)Oc1nc(N2CC3CCC(C2)N3)c2cc(Cl)c(-c3ccc(F)c4sc(N)c(C#N)c34)c(F)c2n1` [Example E116, 4-(4-(3,8-diazabicyclo[3.2.1]octan-3-yl)-6-chloro-8-fluoro-2-(((S)-1-(4-fluoropiperidin-1-yl)propan-2-yl)oxy)quinazolin-7-yl)-2-amino-7-fluorobenzo[b]thiophene-3-carbonitrile], the IC50 was < 50 nM.

Take `Cc1cc(N)nc(-c2cc3nc(OC[C@@]45CCCN4C[C@H](F)C5)nc(N4CC5CCC(C4)N5)c3cc2Cl)c1C(F)(F)F` [Example E117, 6-(4-(3,8-diazabicyclo[3.2.1]octan-3-yl)-6-chloro-2-(((2R,7aS)-2-fluorotetrahydro-1H-pyrrolizin-7a(5H)-yl)methoxy)quinazolin-7-yl)-4-methyl-5-(trifluoromethyl)pyridin-2-amine]: the IC50 is < 50 nM.

`Cc1cc(N)c(C#N)c(-c2c(Cl)cc3c(N4CC5CCC(C4)N5)nc(OC[C@@]45CCCN4C[C@H](F)C5)nc3c2F)c1I` [Example E118, 2-(4-(3,8-diazabicyclo[3.2.1]octan-3-yl)-6-chloro-8-fluoro-2-(((2R,7aS)-2-fluorotetrahydro-1H-pyrrolizin-7a(5H)-yl)methoxy)quinazolin-7-yl)-6-amino-3-iodo-4-methylbenzonitrile]: the IC50 is < 50 nM.

With `Cc1cc(N)nc(-c2c(C#N)cc3c(N4CC5CCC(C4)N5)nc(OC[C@@]45CCCN4C[C@H](F)C5)nc3c2F)c1C(F)(F)F` [Example E119, 7-(6-amino-4-methyl-3-(trifluoromethyl)pyridin-2-yl)-4-(3,8-diazabicyclo [3.2.1]octan-3-yl)-8-fluoro-2-(((2R,7aS)-2-fluorotetrahydro-1H-pyrrolizin-7a(5H)-yl)methoxy) quinazoline-6-carbonitrile], the IC50 is < 50 nM.

Consider `Cc1cc2[nH]ncc2c(-c2c(Cl)cc3c(N4CC5CCC(C4)N5)nc(OC[C@@]45CCCN4C[C@H](F)C5)nc3c2F)c1Cl` [Example E120, 4-(3,8-diazabicyclo[3.2.1]octan-3-yl)-6-chloro-7-(5-chloro-6-methyl-1H-indazol-4-yl)-8-fluoro-2-(((2R,7aS)-2-fluorotetrahydro-1H-pyrrolizin-7a(5H)-yl)methoxy)quinazoline], for which the IC50 is < 50 nM.

On to `CN1CCCC1(CC#N)COc1nc(N2CC3CCC(C2)N3)c2cc(C(F)(F)F)c(-c3ccc(F)c4sc(N)nc34)c(F)c2n1` (stereo not drawn) [Example E121, 2-(2-(((7-(2-amino-7-fluorobenzo[d]thiazol-4-yl)-4-(3,8-diazabicyclo[3.2.1]octan-3-yl)-8-fluoro-6-(trifluoromethyl)quinazolin-2-yl)oxy)methyl)-1-methylpyrrolidin-2-yl)acetonitrile], for which the IC50 was < 50 nM.

Take `CN1C[C@H](F)C[C@]1(C)COc1nc(N2C3CNCC2COC3)c2cc(C(F)(F)F)c(-c3ccc(F)c4sc(N)nc34)c(F)c2n1` [Example E122, 4-(4-(3-oxa-7,9-diazabicyclo[3.3.1]nonan-9-yl)-8-fluoro-2-(((2R,4R)-4-fluoro-1,2-dimethylpyrrolidin-2-yl)methoxy)-6-(trifluoromethyl)quinazolin-7-yl)-7-fluorobenzo[d]thiazol-2-amine]: the IC50 was < 50 nM.

In the case of `Oc1cc(Cl)c(C2CC2)c(-c2c(Cl)cc3c(N4CC5CCC(C4)N5)nc(OC[C@@]45CCCN4C[C@H](F)C5)nc3c2F)c1` [Example E123, 3-(4-(3,8-diazabicyclo[3.2.1]octan-3-yl)-6-chloro-8-fluoro-2-(((2R,7aS)-2-fluorotetrahydro-1H-pyrrolizin-7a(5H)-yl)methoxy)quinazolin-7-yl)-5-chloro-4-cyclopropylphenol], the IC50 was < 50 nM.

Consider `N#CCCNC1C[C@H]2CC[C@@H]1N2c1nc(OC[C@@]23CCCN2C[C@H](F)C3)nc2c(F)c(-c3ccc(F)c4sc(N)nc34)c(C(F)(F)F)cc12` (stereo partly drawn) [Example E124, 3-(((1S,4R)-7-(7-(2-amino-7-fluorobenzo[d]thiazol-4-yl)-8-fluoro-2-(((2R,7aS)-2-fluorotetrahydro-1H-pyrrolizin-7a(5H)-yl)methoxy)-6-(trifluoromethyl)quinazolin-4-yl)-7-azabicyclo[2.2.1]heptan-2-yl)amino)propanenitrile], for which the IC50 was < 50 nM.

Regarding `C=Cc1cc(N)nc(-c2c(Cl)cc3c(N4CC5CCC(C4)N5)nc(OC[C@@]45CCCN4C[C@H](F)C5)nc3c2F)c1C(F)(F)F` [Example E125, 6-(4-(3,8-diazabicyclo[3.2.1]octan-3-yl)-6-chloro-8-fluoro-2-(((2R,7aS)-2-fluorotetrahydro-1H-pyrrolizin-7a(5H)-yl)methoxy)quinazolin-7-yl)-5-(trifluoromethyl)-4-vinylpyridin-2-amine], the IC50 was < 50 nM.

`Oc1cc(F)c(C(F)(F)F)c(-c2c(Cl)cc3c(N4CC5CCC(C4)N5)nc(OC[C@@]45CCCN4C[C@H](F)C5)nc3c2F)c1` [Example E126, 3-(4-(3,8-diazabicyclo[3.2.1]octan-3-yl)-6-chloro-8-fluoro-2-(((2R,7aS)-2-fluorotetrahydro-1H-pyrrolizin-7a(5H)-yl)methoxy)quinazolin-7-yl)-5-fluoro-4-(trifluoromethyl)phenol]: the IC50 is < 50 nM.

`Nc1nc2c(-c3c(C(F)(F)F)cc4c(N5C6CNCC5C6)nc(OC[C@@]56CCCN5C[C@H](F)C6)nc4c3F)ccc(F)c2s1` [Example E127, 4-(4-(3,6-diazabicyclo[3.1.1]heptan-6-yl)-8-fluoro-2-(((2R,7aS)-2-fluorotetrahydro-1H-pyrrolizin-7a(5H)-yl)methoxy)-6-(trifluoromethyl)quinazolin-7-yl)-7-fluoro benzo[d]thiazol-2-amine]: the IC50 was < 50 nM.

Turning to `Nc1nc2c(-c3cc4nc(OC[C@@]56CCCN5C[C@H](F)C6)nc(N5CC6CCC(C5)N6)c4cc3C(F)(F)F)ccc(F)c2s1` [Example E128, 4-(4-(3,8-diazabicyclo[3.2.1]octan-3-yl)-2-(((2R,7aS)-2-fluorotetra hydro-1H-pyrrolizin-7a(5H)-yl)methoxy)-6-(trifluoromethyl)quinazolin-7-yl)-7-fluorobenzo[d] thiazol-2-amine], the IC50 was < 50 nM.

As for `Cc1cc(N)nc(-c2c(C3CC3)cc3c(N4CC5CCC(C4)N5)nc(OC[C@@]45CCCN4C[C@H](F)C5)nc3c2F)c1C(F)(F)F` [Example E129, 6-(4-(3,8-diazabicyclo[3.2.1]octan-3-yl)-6-cyclopropyl-8-fluoro-2-(((2R,7aS)-2-fluorotetrahydro-1H-pyrrolizin-7a(5H)-yl)methoxy)quinazolin-7-yl)-4-methyl-5-(trifluoromethyl)pyridin-2-amine], the IC50 was < 50 nM.

For the compound `CC(F)(F)c1c(Cl)cc(N)nc1-c1c(Cl)cc2c(N3CC4CCC(C3)N4)nc(OC[C@@]34CCCN3C[C@H](F)C4)nc2c1F` [Example E130, 6-(4-(3,8-diazabicyclo[3.2.1]octan-3-yl)-6-chloro-8-fluoro-2-(((2R,7aS)-2-fluorotetrahydro-1H-pyrrolizin-7a(5H)-yl)methoxy)quinazolin-7-yl)-4-chloro-5-(1,1-difluoroethyl)pyridin-2-amine], the IC50 is < 50 nM.

As to `COCC1CCC2(COc3nc(N4CC5CCC(C4)N5)c4cc(C(F)(F)F)c(-c5ccc(F)c6sc(N)nc56)c(F)c4n3)CCCN12` (stereo not drawn) [Example E131, 4-(4-(3,8-diazabicyclo[3.2.1]octan-3-yl)-8-fluoro-2-((3-(methoxymethyl)tetrahydro-1H-pyrrolizin-7a(5H)-yl)methoxy)-6-(trifluoromethyl)quinazolin-7-yl)-7-fluorobenzo[d]thiazol-2-amine], the IC50 was < 50 nM.

As to `N#Cc1c(N)sc2c(F)ccc(-c3c(Cl)cc4c(N5CC6CCC(C5)N6)nc(OCC5(CN6CCC(F)C6)CCC5)nc4c3F)c12` (stereo not drawn) [Example E132, 4-(4-(3,8-diazabicyclo[3.2.1]octan-3-yl)-6-chloro-8-fluoro-2-((1-((3-fluoropyrrolidin-1-yl)methyl)cyclobutyl)methoxy)quinazolin-7-yl)-2-amino-7-fluorobenzo [b]thiophene-3-carbonitrile], the IC50 is < 50 nM.

For the compound `Cc1cc(N)nc(-c2c(Cl)cc3c(N4CC5CCC(C4)N5)nc(OCC45CCCN4C(CF)CC5)nc3c2F)c1C(F)(F)F` (stereo not drawn) [Example E133, 6-(4-(3,8-diazabicyclo[3.2.1]octan-3-yl)-6-chloro-8-fluoro-2-((3-(fluoromethyl)tetrahydro-1H-pyrrolizin-7a(5H)-yl)methoxy)quinazolin-7-yl)-4-methyl-5-(trifluoromethyl)pyridin-2-amine], the IC50 is < 50 nM.
